Values joined by “and” are separate entries in the source; they are usually repeats but may differ in a detail not shown here. Equal values may be shown once.
Experiments:
Assay type in all cases: functional
Homo sapiens [1] = species on record: Homo sapiens; experiment: In vitro inhibition of ADP-induced aggregation of human PRP in the presence of pig aortal microsomes (PAM).
Homo sapiens [2] = species on record: Homo sapiens; experiment: Inhibition of ADP-induced aggregation of human PRP in the absence of pig aortal microsomes (PAM)
Homo sapiens [3] = species on record: Homo sapiens; experiment: Ratio of IC50(w/oPAM)/IC50(w/PAM)
Rattus norvegicus [4] = experiment: Antihypertensive activity in conscious spontaneously hypertensive rat (SHR), percent change in heart rate (beats/min) after 2 hr at 10 mg/kg peroral dose; conditions: route oral
Rattus norvegicus [5] = experiment: Antihypertensive activity in conscious spontaneously hypertensive rat (SHR), percent change in heart rate (beats/min) after 4 hr at 10 mg/kg peroral dose; conditions: route oral
Rattus norvegicus [6] = experiment: Antihypertensive activity in conscious spontaneously hypertensive rat (SHR), percent change in heart rate (beats/min) after 1 hr at 10 mg/kg peroral dose; conditions: route oral
Rattus norvegicus [7] = experiment: Antihypertensive activity in conscious spontaneously hypertensive rat (SHR), percent change in Systolic blood pressure (SBP) after 2 hr at 10 mg/kg peroral dose; conditions: route oral
Rattus norvegicus [8] = experiment: Antihypertensive activity in conscious spontaneously hypertensive rat (SHR), percent change in Systolic blood pressure (SBP) after 1 hr; design: concentration or dose not given beside the values
Rattus norvegicus [9] = experiment: Antihypertensive activity in conscious spontaneously hypertensive rat (SHR), percent change in Systolic blood pressure (SBP) after 4 hr at 10 mg/kg peroral dose; conditions: route oral

Compound	IC50 (Homo sapiens [1]) [µM]	IC50 (Homo sapiens [2]) [µM]	Ratio (Homo sapiens [3])	Change in heart rate (Rattus norvegicus [4]) [%]	Change in heart rate (Rattus norvegicus [5]) [%]	Change in heart rate (Rattus norvegicus [6]) [%]	Change systolic BP (Rattus norvegicus [7]) [%]	Change systolic BP (Rattus norvegicus [8])	Change systolic BP (Rattus norvegicus [9]) [%]	Change in heart rate (Rattus norvegicus [5]; 10 mg/kg)
C/C(=C\n1ccnc1)c1ccc2c(c1)CCC(=O)N2	1.6	13	8.1							
O=C1CCc2cc(C#Cc3cccnc3)ccc2N1	11	240	22	15	22	4	-6	-13%	-5	
O=C1CCc2cc(/C(=C/n3ccnc3)c3ccccc3)ccc2N1	28	270	9.6							
CCCCCC(c1ccc2c(c1)CCC(=O)N2)n1ccnc1 (centres undefined)	2.5	37								
O=C1CCc2cc(/C=C/c3cccnc3)ccc2N1	6.2	95	15	23	32	11	-7	-7%	-12	
O=C1CCc2cc(C(Cn3ccnc3)c3ccccc3)ccc2N1 (centres undefined)	200									
C/C(=C\c1cccnc1)c1ccc2c(c1)CCC(=O)N2	2.2	90	41	20			-15	-19% and -16%		12% and 25%

From ChEMBL document CHEMBL1126161, “3,4-Dihydroquinolin-2(1H)-ones as combined inhibitors of thromboxane A2 synthase and cAMP phosphodiesterase” (J Med Chem, 1992)
